From US7365096B2, “Methods for selectively inhibiting Janus tyrosine kinase 3 (Jak3)” (Board of Regents, The University of Texas System, priority 2002, dated 2008)

Experiments:
[1] = target: p56Lck (Homo sapiens, UniProt P06239); conditions: cited from earlier work
[2] = target: Lck (Homo sapiens, UniProt P06239); conditions: cited from earlier work
[3] = tested on: graft infiltrating mononuclear cells (GICs); conditions: rat, in vivo; cited from earlier work
[4] = target: Lyn (Homo sapiens, UniProt P07948); conditions: cited from earlier work
Chain of Lyn (P07948 whole entry, species assumed): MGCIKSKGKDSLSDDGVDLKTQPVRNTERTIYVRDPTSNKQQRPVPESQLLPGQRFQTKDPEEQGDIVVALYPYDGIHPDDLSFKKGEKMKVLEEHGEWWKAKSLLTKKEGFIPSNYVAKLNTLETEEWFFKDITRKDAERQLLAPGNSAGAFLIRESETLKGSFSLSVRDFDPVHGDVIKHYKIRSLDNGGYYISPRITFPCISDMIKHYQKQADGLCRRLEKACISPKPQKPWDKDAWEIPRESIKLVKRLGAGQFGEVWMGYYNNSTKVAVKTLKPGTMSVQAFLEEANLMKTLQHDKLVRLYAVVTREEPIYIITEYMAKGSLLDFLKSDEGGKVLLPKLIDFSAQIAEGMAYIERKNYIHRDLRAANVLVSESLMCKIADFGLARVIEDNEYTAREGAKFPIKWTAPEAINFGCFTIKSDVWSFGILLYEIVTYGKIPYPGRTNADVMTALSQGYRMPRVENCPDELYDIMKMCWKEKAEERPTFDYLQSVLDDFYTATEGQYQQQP

[5] = tested on: Jak; conditions: cited from earlier work
[6] = target: Src (Homo sapiens, UniProt P12931); conditions: cited from earlier work
Chain of Src (P12931 whole entry, species assumed): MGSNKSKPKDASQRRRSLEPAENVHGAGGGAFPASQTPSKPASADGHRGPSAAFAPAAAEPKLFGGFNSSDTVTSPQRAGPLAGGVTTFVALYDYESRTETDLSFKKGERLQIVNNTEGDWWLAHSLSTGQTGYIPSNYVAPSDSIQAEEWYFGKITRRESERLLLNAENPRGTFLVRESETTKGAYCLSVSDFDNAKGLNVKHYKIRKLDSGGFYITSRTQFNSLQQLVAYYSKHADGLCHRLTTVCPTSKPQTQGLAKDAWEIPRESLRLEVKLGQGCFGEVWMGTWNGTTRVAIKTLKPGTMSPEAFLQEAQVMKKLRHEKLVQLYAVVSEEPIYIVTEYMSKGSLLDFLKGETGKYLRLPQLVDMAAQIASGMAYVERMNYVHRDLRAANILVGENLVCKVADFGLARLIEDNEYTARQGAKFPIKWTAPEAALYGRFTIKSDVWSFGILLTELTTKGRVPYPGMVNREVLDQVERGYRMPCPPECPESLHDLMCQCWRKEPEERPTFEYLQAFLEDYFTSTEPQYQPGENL

[7] = target: Btk (Homo sapiens, UniProt Q06187); conditions: cited from earlier work
Chain of Btk (Q06187 whole entry, species assumed): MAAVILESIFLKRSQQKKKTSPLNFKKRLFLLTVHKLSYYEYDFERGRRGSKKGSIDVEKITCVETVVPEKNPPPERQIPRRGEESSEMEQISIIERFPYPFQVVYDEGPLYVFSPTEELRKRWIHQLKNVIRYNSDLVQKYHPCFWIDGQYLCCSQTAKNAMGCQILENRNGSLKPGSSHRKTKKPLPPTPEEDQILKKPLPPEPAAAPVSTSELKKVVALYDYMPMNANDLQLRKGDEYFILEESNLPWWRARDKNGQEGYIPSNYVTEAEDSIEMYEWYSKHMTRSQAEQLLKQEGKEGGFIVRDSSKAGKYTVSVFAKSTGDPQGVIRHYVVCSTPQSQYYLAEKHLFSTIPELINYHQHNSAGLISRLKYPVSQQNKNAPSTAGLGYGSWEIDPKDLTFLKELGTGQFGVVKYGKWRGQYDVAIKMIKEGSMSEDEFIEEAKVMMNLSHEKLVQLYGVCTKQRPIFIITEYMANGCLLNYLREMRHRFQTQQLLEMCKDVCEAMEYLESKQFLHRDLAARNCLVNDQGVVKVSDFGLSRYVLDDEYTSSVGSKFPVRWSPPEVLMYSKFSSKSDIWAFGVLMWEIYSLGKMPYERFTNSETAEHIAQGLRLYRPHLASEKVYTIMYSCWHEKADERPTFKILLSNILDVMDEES

[8] = target: T1, Jak3 (Homo sapiens, UniProt P52333); conditions: cited from earlier work
T1 sequence (P52333 1-1124): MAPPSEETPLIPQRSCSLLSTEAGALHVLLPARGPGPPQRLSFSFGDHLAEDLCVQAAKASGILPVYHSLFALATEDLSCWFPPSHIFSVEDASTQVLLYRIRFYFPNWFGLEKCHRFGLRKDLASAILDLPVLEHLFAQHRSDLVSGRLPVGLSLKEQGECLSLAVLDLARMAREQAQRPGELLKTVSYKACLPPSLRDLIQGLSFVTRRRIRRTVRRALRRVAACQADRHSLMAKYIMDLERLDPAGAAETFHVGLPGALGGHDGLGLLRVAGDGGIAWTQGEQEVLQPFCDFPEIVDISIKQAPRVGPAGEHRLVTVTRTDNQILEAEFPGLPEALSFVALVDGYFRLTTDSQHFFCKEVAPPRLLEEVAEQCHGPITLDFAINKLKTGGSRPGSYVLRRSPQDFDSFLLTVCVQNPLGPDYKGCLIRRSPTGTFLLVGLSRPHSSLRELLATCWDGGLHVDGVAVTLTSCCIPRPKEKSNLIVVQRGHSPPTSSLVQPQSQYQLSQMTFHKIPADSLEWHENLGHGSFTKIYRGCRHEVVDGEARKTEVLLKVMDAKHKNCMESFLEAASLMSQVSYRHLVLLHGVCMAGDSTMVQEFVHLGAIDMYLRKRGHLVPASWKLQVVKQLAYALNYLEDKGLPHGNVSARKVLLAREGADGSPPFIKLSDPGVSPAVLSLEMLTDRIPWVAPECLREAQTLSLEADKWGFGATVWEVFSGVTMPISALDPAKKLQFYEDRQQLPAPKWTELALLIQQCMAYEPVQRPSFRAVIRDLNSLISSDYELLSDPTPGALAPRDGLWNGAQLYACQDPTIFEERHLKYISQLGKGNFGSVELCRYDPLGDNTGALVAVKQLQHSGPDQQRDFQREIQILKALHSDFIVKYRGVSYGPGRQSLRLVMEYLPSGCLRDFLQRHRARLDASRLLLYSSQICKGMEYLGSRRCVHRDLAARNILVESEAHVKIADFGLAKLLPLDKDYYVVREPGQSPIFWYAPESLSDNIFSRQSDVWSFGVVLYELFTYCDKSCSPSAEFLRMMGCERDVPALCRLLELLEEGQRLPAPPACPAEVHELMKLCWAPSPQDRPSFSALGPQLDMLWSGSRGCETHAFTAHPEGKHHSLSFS

[9] = target: Tyk2 (Homo sapiens, UniProt P29597); conditions: cited from earlier work
Chain of Tyk2 (P29597 whole entry, species assumed): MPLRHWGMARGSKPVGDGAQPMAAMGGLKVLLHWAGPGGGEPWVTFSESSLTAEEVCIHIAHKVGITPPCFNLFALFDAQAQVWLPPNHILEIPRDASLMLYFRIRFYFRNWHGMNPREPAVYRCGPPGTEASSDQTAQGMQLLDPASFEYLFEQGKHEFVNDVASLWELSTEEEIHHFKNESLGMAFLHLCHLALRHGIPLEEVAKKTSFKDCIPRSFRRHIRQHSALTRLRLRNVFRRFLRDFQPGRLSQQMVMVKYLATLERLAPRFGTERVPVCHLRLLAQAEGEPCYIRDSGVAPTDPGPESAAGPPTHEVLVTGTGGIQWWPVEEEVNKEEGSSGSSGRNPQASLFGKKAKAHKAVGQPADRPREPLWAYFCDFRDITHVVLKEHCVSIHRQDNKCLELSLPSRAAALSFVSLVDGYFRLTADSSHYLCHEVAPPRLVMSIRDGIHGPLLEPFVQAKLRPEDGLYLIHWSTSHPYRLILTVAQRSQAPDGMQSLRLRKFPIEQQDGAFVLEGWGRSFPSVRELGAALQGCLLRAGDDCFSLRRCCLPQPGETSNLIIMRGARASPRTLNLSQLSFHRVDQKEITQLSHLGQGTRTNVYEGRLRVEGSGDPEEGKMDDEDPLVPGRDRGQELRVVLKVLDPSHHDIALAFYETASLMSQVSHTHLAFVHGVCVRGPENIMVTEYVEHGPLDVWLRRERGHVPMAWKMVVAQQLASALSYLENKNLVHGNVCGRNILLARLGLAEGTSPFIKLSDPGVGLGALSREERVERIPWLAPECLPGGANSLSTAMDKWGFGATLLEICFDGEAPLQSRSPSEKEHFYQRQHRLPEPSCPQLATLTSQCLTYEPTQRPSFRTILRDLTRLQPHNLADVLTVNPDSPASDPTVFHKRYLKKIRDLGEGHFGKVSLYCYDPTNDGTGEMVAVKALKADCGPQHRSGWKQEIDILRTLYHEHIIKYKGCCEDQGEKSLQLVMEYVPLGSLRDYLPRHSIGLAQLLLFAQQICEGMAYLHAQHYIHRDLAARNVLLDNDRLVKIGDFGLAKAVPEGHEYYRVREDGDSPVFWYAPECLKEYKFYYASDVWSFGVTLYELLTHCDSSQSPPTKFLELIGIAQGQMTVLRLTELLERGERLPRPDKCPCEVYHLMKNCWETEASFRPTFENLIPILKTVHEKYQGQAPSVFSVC

[10] = tested on: T-cell proliferation mediated by TCGFs; conditions: cited from earlier work
[11] = target: Syk (Homo sapiens, UniProt P43405); conditions: cited from earlier work
[12] = target: T2, Zap70 (Homo sapiens, UniProt P43403); conditions: cited from earlier work
T2 sequence (P43403 1-619): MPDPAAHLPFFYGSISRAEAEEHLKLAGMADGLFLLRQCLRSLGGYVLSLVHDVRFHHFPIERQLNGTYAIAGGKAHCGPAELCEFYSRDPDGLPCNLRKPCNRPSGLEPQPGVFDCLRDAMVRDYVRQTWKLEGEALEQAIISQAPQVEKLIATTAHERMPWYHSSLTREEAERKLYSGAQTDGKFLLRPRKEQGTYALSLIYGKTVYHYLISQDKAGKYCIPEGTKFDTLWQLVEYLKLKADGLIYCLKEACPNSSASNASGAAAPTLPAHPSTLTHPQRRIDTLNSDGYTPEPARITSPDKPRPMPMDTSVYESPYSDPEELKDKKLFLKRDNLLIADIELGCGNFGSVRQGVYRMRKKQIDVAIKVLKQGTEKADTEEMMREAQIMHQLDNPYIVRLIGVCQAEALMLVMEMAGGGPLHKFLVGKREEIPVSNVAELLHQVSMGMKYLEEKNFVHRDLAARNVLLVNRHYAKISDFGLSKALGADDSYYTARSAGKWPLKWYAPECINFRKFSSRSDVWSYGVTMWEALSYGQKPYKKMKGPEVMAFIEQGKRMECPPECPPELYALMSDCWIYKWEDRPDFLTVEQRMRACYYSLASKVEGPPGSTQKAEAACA

[13] = target: Jak1 (Homo sapiens, UniProt P23458); conditions: cited from earlier work
Chain of Jak1 (P23458 whole entry, species assumed): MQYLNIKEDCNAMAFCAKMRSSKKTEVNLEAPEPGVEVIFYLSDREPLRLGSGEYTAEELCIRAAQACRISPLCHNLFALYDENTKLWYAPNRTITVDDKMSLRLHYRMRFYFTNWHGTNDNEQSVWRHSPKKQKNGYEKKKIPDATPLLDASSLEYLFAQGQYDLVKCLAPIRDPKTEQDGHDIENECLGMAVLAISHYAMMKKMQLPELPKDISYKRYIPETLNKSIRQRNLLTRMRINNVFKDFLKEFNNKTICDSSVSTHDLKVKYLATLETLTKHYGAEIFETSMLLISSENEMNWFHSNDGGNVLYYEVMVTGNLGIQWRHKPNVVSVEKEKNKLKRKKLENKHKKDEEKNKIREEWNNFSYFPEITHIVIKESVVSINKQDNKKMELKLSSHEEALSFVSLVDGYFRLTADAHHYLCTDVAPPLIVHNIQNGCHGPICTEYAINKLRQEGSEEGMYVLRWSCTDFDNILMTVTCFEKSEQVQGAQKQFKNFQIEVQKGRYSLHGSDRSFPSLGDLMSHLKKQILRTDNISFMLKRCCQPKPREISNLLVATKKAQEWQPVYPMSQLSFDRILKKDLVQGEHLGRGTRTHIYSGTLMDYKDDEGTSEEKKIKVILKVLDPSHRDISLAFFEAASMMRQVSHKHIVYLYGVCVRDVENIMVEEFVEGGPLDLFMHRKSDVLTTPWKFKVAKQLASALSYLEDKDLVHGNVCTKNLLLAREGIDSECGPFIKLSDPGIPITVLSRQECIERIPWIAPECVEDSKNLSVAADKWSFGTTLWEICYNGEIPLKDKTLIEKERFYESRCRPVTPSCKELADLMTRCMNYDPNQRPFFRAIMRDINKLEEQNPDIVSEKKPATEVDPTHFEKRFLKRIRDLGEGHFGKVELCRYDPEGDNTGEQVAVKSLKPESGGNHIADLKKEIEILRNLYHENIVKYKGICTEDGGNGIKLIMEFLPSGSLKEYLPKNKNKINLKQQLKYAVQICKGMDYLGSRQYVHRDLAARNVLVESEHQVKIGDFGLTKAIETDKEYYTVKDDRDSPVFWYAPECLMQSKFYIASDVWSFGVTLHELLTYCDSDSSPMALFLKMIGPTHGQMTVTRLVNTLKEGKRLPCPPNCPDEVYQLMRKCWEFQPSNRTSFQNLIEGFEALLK

[14] = target: T1, Jak3; conditions: cited from earlier work; remark: listed apart in the source
[15] = tested on: Jak3 mediated T-cell growth; conditions: cited from earlier work
[16] = tested on: allograft; conditions: in vivo; cited from earlier work
[17] = tested on: γc/Jak3-dependent PHA-activated human T cells; assay: Proliferation of PHA-activated human T cells ([3H]-thymidine); assay type: cell-based; conditions: for proliferation of PHA-activated human T cells following stimulation with IL-2 (FIG. 7A): IL-2 stimulated
Experimental: Cell culture and treatment. The rat T-cell line Nb2-11c, originally developed by Dr. Peter Gout (Vancouver, Canada), was grown in RPMI-1640 with 10% fetal calf serum (Intergen, cat. no. 1020-90), 2 mM L-glutamine, 5 mM HEPES, pH 7.3, and penicillin-streptomycin (50 IU/ml and 50 μg/ml, respectively), at 37° C./5% CO2. Freshly explanted normal human T lymphocytes purified by isocentrifugation (Ficoll®; EM Science, Gibbstown, N.J.) were phytohemagglutinin (PHA)-activated for 72 hours as previously described.^23 T lymphocytes were made quiescent by washing and incubating for 24 hours in RPMI-1640 medium containing 1% fetal calf serum before exposure to cytokines. […] The Mannich base 649641P (NC1153) was generously provided by Dr. Jonathan Dimmock College of Pharmacy, University of Saskatchewan, Saskatoon, Saskatchewan, Canada. All cells were then stimulated with 1 nM recombinant human IL-2 (Hoffman-LaRoche, Basel, Switzerland), IL4 or IL7 (PeproTech), or ovine prolactin (PRL) supplied by the National Hormone and Pituitary Program, National Institute of Diabetes, Digestive, and Kidney Disease (Bethesda, Md.), at 37° C. Cell pellets were frozen at −70° C.
Proliferation assays. Quiescent human primary T-cells, YT or rat Nb2-11c T-cells (5.0×10^4/well) were plated in flat-bottom, 96-well microtiter plates in 200 μl of quiescent media in the absence or presence of 1 nM IL-2, -4, -7 (PeproTech, Rock Hill, N.J.), or PRL. Next, cells were treated for 16 hours with the Mannich base drug and then pulsed for 4 hours with [^3H]-thymidine (0.5 μCi/200 μl) and harvested onto fiberglass filters. [^3H]-thymidine incorporation was analyzed by liquid scintillation counting as previously described,^23 or using standard techniques that are well known in the art.

[18] = rat, in vivo

Chain of p56Lck (P06239 whole entry, species assumed): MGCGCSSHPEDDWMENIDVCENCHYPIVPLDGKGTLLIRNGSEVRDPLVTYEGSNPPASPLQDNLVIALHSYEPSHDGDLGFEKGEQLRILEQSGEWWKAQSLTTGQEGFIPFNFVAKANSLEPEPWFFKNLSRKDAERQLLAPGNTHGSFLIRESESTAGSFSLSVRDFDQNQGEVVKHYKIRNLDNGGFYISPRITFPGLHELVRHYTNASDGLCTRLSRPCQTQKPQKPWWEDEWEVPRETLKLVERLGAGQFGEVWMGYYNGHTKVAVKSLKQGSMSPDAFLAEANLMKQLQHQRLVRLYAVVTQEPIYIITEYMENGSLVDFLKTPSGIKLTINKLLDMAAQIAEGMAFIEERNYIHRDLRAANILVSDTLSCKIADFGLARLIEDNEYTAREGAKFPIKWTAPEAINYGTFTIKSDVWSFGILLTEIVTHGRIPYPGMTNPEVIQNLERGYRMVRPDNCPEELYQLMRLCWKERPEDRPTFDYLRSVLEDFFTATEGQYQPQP
Chain of Lck (P06239 whole entry, species assumed): as above

N#C/C(=C\c1ccc(O)c(O)c1)C(=O)NCc1ccccc1 [AG-490]
effect on p56Lck [1]: neither of those two agents affects | inhibition of Lck [2]: does not inhibit | IL2Rα expression (ribonuclease protection assays) [3]: failed to affect | Stat5a/b DNA binding of ex vivo IL-2 stimulated GICs [3]: reduced | graft infiltration of mononuclear cells (GICs) [3]: reduced | inhibition of Lyn [4]: does not inhibit | effects on closest related family member Jak [5]: exert similar effects | inhibition of Src [6]: does not inhibit | inhibition of Btk [7]: does not inhibit | Jak3 autokinase activity [8]: competent to inhibit | inhibition of Tyk2 [9]: does not inhibit | T-cell proliferation mediated by TCGFs [10]: competent to inhibit | inhibition of Syk [11]: does not inhibit | effect on Zap70 [12]: neither of those two agents affects | inhibition of Jak1 [13]: does not inhibit

CCCCCCCCCCCC1C=C/C(=C/c2[nH]c(-c3ccc[nH]3)cc2OCc2ccccc2)N1.Cl (stereo not drawn) [PNU156804]
effect on p56Lck [1]: neither of those two agents affects | Jak3 autophosphorylation as compared with Jak2 [14]: preferentially inhibited | inhibition of Jak3 mediated T-cell growth by IL-2 compared to prolactin (Jak2) [15]: greater specificity | Jak3 autokinase activity [8]: competent to inhibit | T-cell proliferation mediated by TCGFs [10]: competent to inhibit | allograft survival [16]: prolongs allograft survival | interaction with CsA [16]: synergistically | interaction with RAPA [16]: additively | effect on Zap70 [12]: neither of those two agents affects | IC50 ([17]; Homo sapiens, IL-2 driven T-cell growth, 16 hours drug, [3H]-thymidine, read-out: IC50, disrupting cell growth): ~10 µM

CO[C@H]1C[C@@H]2CC[C@@H](C)[C@@](O)(O2)C(=O)C(=O)N2CCCC[C@H]2C(=O)O[C@H]([C@H](C)C[C@@H]2CC[C@@H](O)[C@H](OC)C2)CC(=O)[C@H](C)/C=C(\C)[C@@H](O)[C@@H](OC)C(=O)[C@H](C)C[C@H](C)/C=C/C=C/C=C/1C [RAPA, rapamycin, reference compound]
peripheral blood counts (PBC) [18]: reduced PBC compared to untreated rats, in contrast to SRL

COc1cc(C2C(C(=O)Nc3ccc(Cl)c(Cl)c3)=C(C)NC(C)=C2C(=O)Nc2ccc(Cl)c(Cl)c2)ccc1O [compound 637712]
proliferation of PHA-activated human T cells following stimulation with IL-2 (FIG. 7A) [17]: blocked

N#CCCN(CCC#N)c1ccc(C(Sc2ccccc2)C(NC(=O)c2cc([N+](=O)[O-])ccc2Cl)C(=O)Sc2ccccc2)cc1 (stereo not drawn) [compound 640674]
proliferation of PHA-activated human T cells following stimulation with IL-2 (FIG. 7A) [17]: blocked

CC1(C)c2ccccc2N2O[C@@H]3C(=O)N(c4ccccc4)C(=O)[C@@H]3C21c1ccccc1 (stereo partly drawn) [compound 643423]
proliferation of PHA-activated human T cells following stimulation with IL-2 (FIG. 7A) [17]: blocked

CCCCCCCC(=O)OCC(C[As](=O)(O)O)OC(=O)CCCCCCC (stereo not drawn) [compound 655906]
proliferation of PHA-activated human T cells following stimulation with IL-2 (FIG. 7A) [17]: blocked

CC(=O)Oc1ccc2cc(-c3ccccc3OC(C)=O)c(=O)oc2c1 [compound 673137]
proliferation of PHA-activated human T cells following stimulation with IL-2 (FIG. 7A) [17]: blocked

O=C1c2ccccc2C(=O)[C@@]23O[C@@]12C1(Oc2cccc4cccc(c24)O1)[C@@H]1O[C@@H]1[C@@H]3O [compound 683332]
proliferation of PHA-activated human T cells following stimulation with IL-2 (FIG. 7A) [17]: blocked

Cc1oc2c(c1C)S(=O)(=O)C(C#N)C(c1ccccc1)N2 (stereo not drawn) [compound 693812]
proliferation of PHA-activated human T cells following stimulation with IL-2 (FIG. 7A) [17]: blocked
